Assay results published in patent US20220081444A1, “6,7-DIHYDRO-4H-PYRAZOLO[1,5-A]PYRAZINE INDOLE-2-CARBOXAMIDES ACTIVE AGAINST THE HEPATITIS B VIRUS (HBV)” (AiCuris GmbH & Co. KG, priority 2018, published 2022).

Test system: HBV
Details: Hepatitis B virus, HePAD38, 144 h, read-out: Cell Activity (EC50)

Q: Which EC50 does the source give for `CC(=O)N1CCC(C(=O)Nc2cc3n(n2)CCN(C(=O)c2cc4ccccc4[nH]2)C3)CC1` [Example 42, 1-acetyl-N-[5-(1H-indole-2-carbonyl)-4H,5H,6H,7H-pyrazolo[1,5-a]pyrazin-2-yl]piperidine-4-carboxamide] here?
A: < 1000 nM

Q: With `O=C(c1cc2ccccc2[nH]1)N1CCn2nc(NS(=O)(=O)Cc3ccccc3)cc2C1` [Example 43, N-[5-(1H-indole-2-carbonyl)-4H,5H,6H,7H-pyrazolo[1,5-a]pyrazin-2-yl]-1-phenylmethanesulfonamide] as the compound, how does the EC50 read?
A: < 1000 nM

Q: How did the EC50 turn out when `CCS(=O)(=O)Nc1cc2n(n1)CCN(C(=O)c1cc3ccccc3[nH]1)C2` [Example 45, N-[5-(1H-indole-2-carbonyl)-4H,5H,6H,7H-pyrazolo[1,5-a]pyrazin-2-yl]ethane-1-sulfonamide] was run?
A: < 1000 nM

Q: With `Cc1noc(C)c1S(=O)(=O)Nc1cc2n(n1)CCN(C(=O)c1cc3ccccc3[nH]1)C2` [Example 46, N-[5-(1H-indole-2-carbonyl)-4H,5H,6H,7H-pyrazolo[1,5-a]pyrazin-2-yl]-3,5-dimethyl-1,2-oxazole-4-sulfonamide] as the compound, how does the EC50 read?
A: < 1000 nM

Q: How did the EC50 turn out when `CC(C)S(=O)(=O)Nc1cc2n(n1)CCN(C(=O)c1cc3ccccc3[nH]1)C2` [Example 47, N-[5-(1H-indole-2-carbonyl)-4H,5H,6H,7H-pyrazolo[1,5-a]pyrazin-2-yl]propane-2-sulfonamide] was run?
A: < 1000 nM

Q: How did the EC50 turn out when `Cc1nc(S(=O)(=O)Nc2cc3n(n2)CCN(C(=O)c2cc4ccccc4[nH]2)C3)cn1C` [Example 48, [5-(1H-indole-2-carbonyl)-4H,5H,6H,7H-pyrazolo[1,5-a]pyrazin-2-yl]-1,2-dimethyl-1H-imidazole-4-sulfonamide] was run?
A: 1000 to 10000 nM

Q: `Cn1cc(S(=O)(=O)Nc2cc3n(n2)CCN(C(=O)c2cc4ccccc4[nH]2)C3)cn1` [Example 49, N-[5-(1H-indole-2-carbonyl)-4H,5H,6H,7H-pyrazolo[1,5-a]pyrazin-2-yl]-1-methyl-1H-pyrazole-4-sulfonamide] was tested. Which EC50 did it give?
A: < 1000 nM

Q: With `O=C(c1cc2ccccc2[nH]1)N1CCn2nc(NS(=O)(=O)c3cccnc3)cc2C1` [Example 50, N-[5-(1H-indole-2-carbonyl)-4H,5H,6H,7H-pyrazolo[1,5-a]pyrazin-2-yl]pyridine-3-sulfonamide] as the compound, how does the EC50 read?
A: < 1000 nM

Q: With `O=C(c1cc2ccccc2[nH]1)N1CCn2nc(NS(=O)(=O)C3CCCCC3)cc2C1` [Example 51, N-[5-(1H-indole-2-carbonyl)-4H,5H,6H,7H-pyrazolo[1,5-a]pyrazin-2-yl]cyclohexanesulfonamide] as the compound, how does the EC50 read?
A: < 1000 nM

Q: Which EC50 does the source give for `COCC1(S(=O)(=O)Nc2cc3n(n2)CCN(C(=O)c2cc4ccccc4[nH]2)C3)CC1` [Example 52, N-[5-(1H-indole-2-carbonyl)-4H,5H,6H,7H-pyrazolo[1,5-a]pyrazin-2-yl]-1-(methoxymethyl)cyclopropane-1-sulfonamide] here?
A: < 1000 nM

Q: Which EC50 does the source give for `O=C(c1cc2ccccc2[nH]1)N1CCn2nc(NS(=O)(=O)C3CCOCC3)cc2C1` [Example 53, N-[5-(1H-indole-2-carbonyl)-4H,5H,6H,7H-pyrazolo[1,5-a]pyrazin-2-yl]oxane-4-sulfonamide] here?
A: < 1000 nM

Q: `COCC1(CNc2cc3n(n2)CCN(C(=O)c2cc4ccccc4[nH]2)C3)CC1` [Example 54, 5-(1H-indole-2-carbonyl)-N-{[1-(methoxymethyl)cyclopropyl]methyl}-4H,5H,6H,7H-pyrazolo[1,5-a]pyrazin-2-amine] was tested. Which EC50 did it give?
A: < 1000 nM

Q: Which EC50 does the source give for `O=C(c1cc2ccccc2[nH]1)N1CCn2nc(NCC3CCCOC3)cc2C1` (stereo not drawn) [Example 55, 5-(1H-indole-2-carbonyl)-N-[(oxan-3-yl)methyl]-4H,5H,6H,7H-pyrazolo[1,5-a]pyrazin-2-amine] here?
A: < 1000 nM

Q: How did the EC50 turn out when `O=C(c1cc2ccccc2[nH]1)N1CCn2nc(NCc3ccccc3)cc2C1` [Example 56, N-benzyl-5-(1H-indole-2-carbonyl)-4H,5H,6H,7H-pyrazolo[1,5-a]pyrazin-2-amine] was run?
A: 1000 to 10000 nM

Q: For `O=C(Nc1cc2n(n1)CCN(C(=O)c1cc3ccccc3[nH]1)C2)C1CCN(c2ccncc2)CC1` [Example 57, N-[5-(1H-indole-2-carbonyl)-4H,5H,6H,7H-pyrazolo[1,5-a]pyrazin-2-yl]-1-(pyridin-4-yl)piperidine-4-carboxamide], which EC50 is on record?
A: < 1000 nM
